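Interpolation was linear, between the two tested concentrations surrounding the appropriate level; five concentrations were tested over 48 hours in 96-well plates. GI50 is the concentration that inhibits growth by half. TGI denotes the concentration required for complete inhibition of growth.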
Assays:
Assay in all cases: NCI anticancer screen, dose series, 48 h
DU-145 prostate = tested on: DU-145 prostate
OVCAR-5 ovarian = tested on: OVCAR-5 ovarian
BT-549 breast = tested on: BT-549 breast
OVCAR-3 ovarian = tested on: OVCAR-3 ovarian
CCRF-CEM leukemia = tested on: CCRF-CEM leukemia
ACHN renal = tested on: ACHN renal
TK-10 renal = tested on: TK-10 renal
SK-MEL-28 melanoma = tested on: SK-MEL-28 melanoma
HOP-62 NSCLC = tested on: HOP-62 NSCLC
MALME-3M melanoma = tested on: MALME-3M melanoma

Row | SMILES | TGI (DU-145 prostate) | TGI (OVCAR-5 ovarian) | TGI (BT-549 breast) | TGI (OVCAR-3 ovarian) | TGI (CCRF-CEM leukemia) | TGI (ACHN renal) | TGI (TK-10 renal) | TGI (SK-MEL-28 melanoma) | TGI (HOP-62 NSCLC) | TGI (MALME-3M melanoma) | GI50 (DU-145 prostate) | GI50 (OVCAR-5 ovarian) | GI50 (BT-549 breast) | GI50 (OVCAR-3 ovarian) | GI50 (CCRF-CEM leukemia) | GI50 (ACHN renal) | GI50 (TK-10 renal) | GI50 (MALME-3M melanoma) | GI50 (HOP-62 NSCLC)
1 | O=C1c2ccccc2C2(c3ccc(Cl)cc3)N[C@@H]3CCCC[C@@H]3N12 (some centres not stated) | > 100 µM | > 100 µM | > 100 µM | > 100 µM | > 100 µM | > 100 µM | > 100 µM | > 100 µM | > 100 µM |  |  |  |  |  |  |  |  |  | 
2 | CCOC(=O)/C(C1=N[C@H](C(=O)OCC)CS1)=C(\O)c1ccccc1 |  | > 100 µM |  | > 100 µM | > 100 µM | > 100 µM |  | > 100 µM | > 100 µM | > 100 µM |  |  |  |  |  |  |  |  | 
3 | Cn1c(O)c(/C=N/c2ncccn2)c(=O)[nH]c1=O | > 100 µM | > 100 µM |  | > 100 µM |  | > 100 µM | > 100 µM | > 100 µM | > 100 µM | > 100 µM |  |  |  |  |  |  |  |  | 
4 | COc1ccc(OC)c(-c2cn3c(n2)sc2ccccc23)c1 | > 100 µM | > 100 µM | > 100 µM | > 100 µM | > 100 µM | > 100 µM | > 100 µM |  | > 100 µM | > 100 µM |  |  |  |  |  |  |  |  | 
5 | COc1ccccc1NC(=O)CSC(N)=O |  | > 100 µM |  | > 100 µM | > 100 µM | > 100 µM | > 100 µM | > 100 µM | 80.2 µM | > 100 µM |  |  |  |  |  |  |  |  | 
6 | COc1ccc(C2C3=CONC3CC3CCCCC32)cc1 (configuration not stated) |  | > 100 µM | > 100 µM | > 100 µM | > 100 µM | > 100 µM | > 100 µM | > 100 µM | > 100 µM | > 100 µM |  |  |  |  |  |  |  |  | 
7 | C/C(=N\NC(=O)c1ccncc1)c1cccc(C(F)(F)F)c1 | > 10 µM |  | > 10 µM |  | > 10 µM |  | > 10 µM | > 10 µM | > 10 µM | > 10 µM |  |  |  |  |  |  |  |  | 
8 | CN1C(=O)C(CCO)(C(C)(C)C)c2ccccc21 (configuration not stated) | > 100 µM | > 100 µM |  | > 100 µM | > 100 µM | > 100 µM |  | > 100 µM | > 100 µM |  |  |  |  |  |  |  |  |  | 
9 | Nc1cc2ncnc(Nc3cccc(Br)c3)c2cn1 |  | > 100 µM | > 100 µM | > 100 µM | > 100 µM | > 100 µM | 8.18 µM | > 100 µM | > 100 µM | > 100 µM |  |  |  |  |  |  |  |  | 
10 | CCOC(=O)NC(OCc1ccccc1)(C(=O)OC)C(F)(F)F (configuration not stated) | > 100 µM | > 100 µM | > 100 µM | > 100 µM | > 100 µM | > 100 µM | > 100 µM | > 100 µM |  |  |  |  |  |  |  |  |  |  | 
11 | O=c1[nH]nc(N/N=C\c2ccc(Cl)cc2)c2ccccc12 | 72 µM | 31.8 µM |  | 30.2 µM | > 100 µM | 37.8 µM | 54.4 µM | 56.9 µM |  | 45.4 µM |  |  |  |  |  |  |  |  | 
12 | Cc1ccc(Cl)c2c(=O)cc(-c3ccccc3)[nH]c12 |  | > 100 µM |  |  | > 100 µM | > 100 µM | > 100 µM | > 100 µM | > 100 µM | > 100 µM |  |  |  |  |  |  |  |  | 
13 | Oc1ccc(O)c(Sc2nnc(CCCCCCCCc3nnc(Sc4cc(O)ccc4O)o3)o2)c1 | > 100 µM | > 100 µM | > 100 µM |  |  | 85.9 µM | > 100 µM | > 100 µM | > 100 µM | > 100 µM |  |  |  |  |  |  |  |  | 
14 | O=C(c1ccccc1)c1ccc2nc(-c3c(Cl)c(Cl)c(Cl)c(Cl)c3C(=O)Nc3ccco3)[nH]c2c1 | > 100 µM | > 100 µM | 74 µM | > 100 µM | > 100 µM | > 100 µM | > 100 µM | > 100 µM | > 100 µM |  |  |  |  |  |  |  |  |  | 
15 | O=c1cnc2cc3ccccc3cc2[nH]1 |  | > 100 µM | > 100 µM | > 100 µM | > 100 µM | > 100 µM | > 100 µM | > 100 µM | > 100 µM | > 100 µM |  |  |  |  |  |  |  |  | 
16 | COc1ccc(C[C@H]2COC(=O)[C@@H]2Cc2ccccc2)cc1OC | > 100 µM | > 100 µM |  | > 100 µM | > 100 µM | > 100 µM | > 100 µM | > 100 µM | > 100 µM | > 100 µM |  |  |  |  |  |  |  |  | 
17 | COc1c(-c2ccc(F)cc2)oc2cc(O)cc(O)c2c1=O | 96.5 µM | 80.5 µM |  | > 100 µM | 95.3 µM | 93.4 µM |  | > 100 µM | 38.4 µM | 61.1 µM |  |  |  |  |  |  |  |  | 
18 | O=C(NCCNCCO)N/N=C/c1ccccc1 |  |  |  | > 100 µM | > 100 µM | > 100 µM | > 100 µM | > 100 µM |  | > 100 µM |  |  |  |  |  |  |  |  | 
19 | C/C=C\C(CC(=O)NCCc1c[nH]c2ccccc12)CC(=O)OC (configuration not stated) | > 100 µM | > 100 µM | > 100 µM | > 100 µM |  | > 100 µM | > 100 µM | > 100 µM | > 100 µM | > 100 µM |  |  |  |  |  |  |  |  | 
20 | Cn1c(=O)[nH]n(-c2ccc3ccccc3c2)c1=O | > 100 µM | > 100 µM | > 100 µM | > 100 µM | > 100 µM | > 100 µM | > 100 µM | > 100 µM |  | > 100 µM |  |  |  |  |  |  |  |  | 
21 | CC(=O)OCC1(CNc2nc(N)ncc2C#N)CC(CCc2ccccc2)C1 (configuration not stated) | > 100 µM | > 100 µM | > 100 µM |  | > 100 µM | > 100 µM |  | > 100 µM | > 100 µM | > 100 µM |  |  |  |  |  |  |  |  | 
22 | CCOC(=O)COC1=Nc2cc(OC)c(OC)c3nc(Cl)cc(c23)C1=O | 3.32 µM | 4.11 µM | 3.45 µM |  |  | 3.02 µM | 3.45 µM | 4.01 µM | 7.97 µM | 2.71 µM |  |  |  |  |  |  |  |  | 
23 | COc1ccc(-c2cc(-c3ccc(OC)c(OC)c3)nc(SCCCC(=O)NO)n2)cc1 | 17.7 µM | 6.25 µM | > 100 µM | 5.46 µM | > 100 µM | 2.29 µM | > 100 µM |  | 6.47 µM | 4.88 µM | 1.53 µM | 1.53 µM | 3.8 µM | 1.69 µM | 1.36 µM | 0.456 µM | 0.722 µM | 0.896 µM | 1.47 µM
